Reference: paper PMC2873112 (Chembiochem : a European journal of chemical biology, 2010)

What was measured:
[1] = molecular target: T1, Cop6 (Coprinopsis cinerea, UniProt A8NCK5, N224D); assay: product analysis by chiral GC-MS; assay type: biochemical; settings: purified mutant; turnover only
[2] = molecular target: T1, Cop6; assay: product profile by GC-MS; assay type: biochemical; settings: turnover only

T1 sequence (A8NCK5 whole entry N224D): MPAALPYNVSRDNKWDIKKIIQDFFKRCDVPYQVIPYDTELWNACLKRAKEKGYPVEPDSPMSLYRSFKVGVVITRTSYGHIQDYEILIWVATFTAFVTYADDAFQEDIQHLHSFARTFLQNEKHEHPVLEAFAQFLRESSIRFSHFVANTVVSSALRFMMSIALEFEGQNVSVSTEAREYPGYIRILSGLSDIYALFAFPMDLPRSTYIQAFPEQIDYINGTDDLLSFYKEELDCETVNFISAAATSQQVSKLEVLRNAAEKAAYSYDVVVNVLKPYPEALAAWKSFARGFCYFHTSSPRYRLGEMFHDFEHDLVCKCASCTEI

Row | SMILES | product analysis by chiral GC-MS [1] | product profile by GC-MS [2]
1 | CC(C)=CCC/C(C)=C/CC/C(C)=C\COP(=O)(O)OP(=O)(O)O [(Z,E)-FPP] | Mutant Cop6N224D now makes a small amount of an additional compound | 
2 | CC(C)=CCC/C(C)=C/CC/C(C)=C/COP(=O)(O)OP(=O)(O)O [(E,E)-FPP] |  | N224D does not affect the product profile of Cop6 with its normal substrate (E,E)-FPP
